From US20230040386A1, “URSODEOXYCHOLIC ACID-CONTAINING AGENT FOR TREATING OR PREVENTING PRESBYOPIA” (priority 2018, published 2023)

Columns and labels:
Assay type in all cases: in vivo, C57BL/6J mice
lens [1] = experiment: Pharmacological Test 5: lens elasticity, 1% ursodeoxycholic acid once-daily for 1, 3, 7, 10 or 14 days; conditions: for Lens elasticity improvement: 1% sample, QD, 24 h after final instillation, vs untreated group
Procedure: A vehicle comprising 0.1% (w/v) of ethyl pyruvate, 0.269% (w/v) of sodium dihydrogenphosphate monohydrate (NaH2PO4H2O), 0.433% (w/v) of disodium hydrogenphosphate (Na2HPO4), 0.2% (w/v) of hydroxypropyl methylcellulose, 0.5% (w/v) of NaCl was prepared. Ursodeoxycholic acid was sonicated with the addition of the vehicle to prepare a 1.0% (w/v) suspension. The total amount of the sample to be used in one day was prepared before use. 1) The test sample (2.5 μL/eye) was instilled into both eyes of 8-month-old C57BL/6J mice with a Pipetman once per day (QD; around 13:30) for 1, 3, 7, 10, or 14 days. 2) Twenty-four hours after the final instillation, the mice were euthanized by carbon dioxide inhalation, and then the eyeballs were extracted and rinsed with Hank's balanced salt solution (HBSS). 3) The sclera near the optic nerve was cut with a razor, the lens was removed through the incision, and the removed lens was immersed in HBSS. 4) The lens was placed on a glass slide, and an all-in-one fluorescence microscope BZ-9000 (Keyence) was used to capture an image of the lens (image a). 5) Next, one cover glass (Corning^(registered trade mark) 22×22 mm Square) was placed on the lens, and an image in which the thickness of the lens changed due to the weight was similarly captured (Image b). 6) A change in the lens diameter was calculated from Equation 1 wherein the lens diameter of Image a is subtracted from the lens diameter of Image b, as described below. Then, the lens elasticity improvement of each sample group compared with the […] was calculated from Equation 2 described below. Each mean of the untreated group and each ursodeoxycholic acid sample group was based on 9 or 10 eyes. Change in lens diameter=Lens diameter in Image b of each test sample−Lens diameter in Image a of each test sample (Equation 1) Lens elasticity improvement of each sample group=Mean change in lens diameter of each Test sample group−Mean change in lens diameter of Untreated group (Equation 2)

lens [2] = experiment: Pharmacological Test 2: lens elasticity after instillation of sodium ursodeoxycholate; conditions: 1.5% (w/v) sample, 2.5 μL/eye, 3 times per day, 12 to 15 days, vs vehicle control
Procedure: A vehicle comprising 0.1% (w/v) of ethyl pyruvate, 0.269% (w/v) of sodium dihydrogenphosphate monohydrate (NaH2PO4H2O), 0.433% (w/v) of disodium hydrogenphosphate (Na2HPO4), 0.2% (w/v) of hydroxypropyl methylcellulose, 0.5% (w/v) of NaCl was prepared. Sodium ursodeoxycholate was sonicated with the addition of the vehicle to prepare a 1.5% (w/v) suspension. The resulting 1.5% (w/v) suspension was diluted with the vehicle to prepare a 0.5% (w/v) suspension. Further, the resulting 0.5% (w/v) suspension was diluted with the vehicle to prepare a 0.15% (w/v) suspension. The total amount of each sample to be used in one day was prepared before use. EV06 was sonicated with the addition of the vehicle to prepare a 1.5% (w/v) solution. The total amount of the sample to be used in one day was prepared before use. 1) Each test sample (2.5 μL/eye) was instilled into the right eye of 8-month-old C57BL/6J mice with a Pipetman 3 times per day (around 9:00, 13:00 and 17:00) for 12 to 15 days. 2) After the final instillation, the mice were euthanized by carbon dioxide inhalation, and then the eyeballs were extracted and rinsed with Hank's balanced salt solution (HBSS)). 3) The sclera near the optic nerve was cut with a razor, the lens was removed through the incision, and the removed lens was immersed in HBSS. 4) The lens was placed on a glass slide, and an all-in-one fluorescence microscope BZ-9000 (Keyence) was used to capture an image of the lens (Image a). 5) Next, one cover glass (Corning^(registered trade mark) 22×22 mm Square) was placed on the lens, and an image in which the thickness of the lens changed due to the weight was similarly captured (Image b). 6) A change in the lens diameter was calculated from Equation 1 wherein the lens diameter of Image a is subtracted from the lens diameter of Image b, as described below. Then, the lens elasticity improvement of each sample group compared with the vehicle control group was calculated from Equation 2 described below. The mean of the vehicle control group was based on 5 eyes, the mean of each sodium ursodeoxycholate sample group was based on 10 eyes, and the mean of the EV06 sample group was based on 10 eyes. Change in lens diameter Lens diameter in image b of each test sample−Lens diameter in Image a of each test sample (Equation 1) Lens elasticity improvement of each sample group=Mean change in lens diameter of each Test sample group−Mean change in lens diameter of Vehicle control group (Equation 2)

lens [3] = experiment: Pharmacological Test 1: lens elasticity after instillation of EV06; conditions: all of the 0.5%, 1.5% and 5% groups compared with vehicle control group
Procedure: The effect of lipoic acid choline ester (EV06) on the lens elasticity was examined. The tests were conducted with reference to the methods described in InvestOphthalmol Vis Sci, 57, 2851-2863, 2016. EV06 is a compound represented by the following formula (2): A vehicle comprising 0.1% (w/v) of ethyl pyruvate, 0.269% (w/v) of sodium dihydrogenphosphate monohydrate (NaH2PO4H2O), 0.433% (w/v) of disodium hydrogenphosphate ([…]), 0.2% (w/v) of hydroxypropyl methylcellulose, and 0.5% (w/v) of NaCl was prepared. EV06 was sonicated with the addition of the vehicle to prepare a 5% (w/v) suspension. The resulting 5% (w/v) suspension was diluted with the vehicle to prepare a 1.5% (w/v) solution. Further, the resulting 1.5% (w/v) solution was diluted with the vehicle to prepare a 0.5% (w/v) solution. The total amount of each sample to be used in one day was prepared before use. […] 4) The lens was placed on a glass slide, and an all-in-one fluorescence microscope BZ-9000 (Keyence) was used to capture an image of the lens (Image a). […] 6) A change in the lens diameter was calculated from Equation 1 wherein the lens diameter of Image a is subtracted from the lens diameter of Image b, as described below. Then, the lens elasticity improvement of each sample group compared with the vehicle control group was calculated from Equation 2 described below. […]

Row | SMILES | Lens elasticity improvement, in words (lens [1]; 1% sample instilled once-daily, by duration of instillation) | Lens elasticity improvement (lens [1]; 1 day) | Lens elasticity improvement (lens [1]; 3 days) | Lens elasticity improvement (lens [1]; 7 days) | Lens elasticity improvement (lens [1]; 10 days) | Lens elasticity improvement (lens [1]; 14 days) | Lens elasticity improvement (lens [2]) | Lens diameter / elasticity improving effect, in words (lens [3])
1 | C[C@H](CCC(=O)O)[C@H]1CC[C@H]2[C@@H]3[C@@H](O)C[C@@H]4C[C@H](O)CC[C@]4(C)[C@H]3CC[C@]12C [ursodeoxycholic acid, 3α,7β-Dihydroxy-5β-cholan-24-oic acid] | showed definitely an improvement in lens elasticity after instillation for 3 days | 9.6 μm | 21.1 μm | 27.4 μm | 38.1 μm | 34.2 μm |  | 
2 | C[N+](C)(C)CCOC(=O)CCCC[C@@H]1CCSS1 [EV06, lipoic acid choline ester] |  |  |  |  |  |  | 38.2 μm | increased lens diameter
